Values quoted from earlier work, collected in PubChem BioAssay AID1259410 (Chemical Carcinogenesis Research Information System (CCRIS), 2018).

Test system: rodent tumor promotion studies, tumor incidence
Test: CCRIS tumor promotion studies

In the case of `O=C(O)c1cc(=O)[nH]c(=O)[nH]1`, the outcome (Carcinogen: 1,2-DIMETHYLHYDRAZINE DIHYDROCHLORIDE, 306-37-6, Doses [Carcinogen]: 100 MG/KG ONCE 18 HR AFTER 2/3 PARTIAL HEPATECTOMY, Doses [Promoter]: 0, 1% IN DIET FOR 10 WK BEGINNING 1 WK POST CARCINOGEN DOSE (STUDY DURATION: 54 WK), Route [Carcinogen]: INTRAPERITONEAL, Route [Promoter]: ORAL, Species: RAT, Strain/Sex: F344/MALE) is given as “liver: hepatocellular carcinoma”, the outcome (Carcinogen: 1,2-DIMETHYLHYDRAZINE DIHYDROCHLORIDE, 306-37-6, Doses [Carcinogen]: 100 MG/KG ONCE 18 HR AFTER 2/3 PARTIAL HEPATECTOMY, Doses [Promoter]: 0, 1% IN DIET FOR 20 WK BEGINNING 1 WK POST CARCINOGEN DOSE (STUDY DURATION: 54 WK), Route [Carcinogen]: INTRAPERITONEAL, Route [Promoter]: ORAL, Species: RAT, Strain/Sex: F344/MALE) is given as “liver: hepatocellular carcinoma” and the outcome (Carcinogen: 1,2-DIMETHYLHYDRAZINE DIHYDROCHLORIDE, 306-37-6, Doses [Carcinogen]: 100 MG/KG ONCE 18 HR AFTER 2/3 PARTIAL HEPATECTOMY, Doses [Promoter]: 0, 1% IN DIET FOR 29 WK BEGINNING 1 WK POST CARCINOGEN DOSE (STUDY DURATION: 54 WK), Route [Carcinogen]: INTRAPERITONEAL, Route [Promoter]: ORAL, Species: RAT, Strain/Sex: F344/MALE) is given as “liver: hepatocellular carcinoma”. The outcome (Carcinogen: 1,2-DIMETHYLHYDRAZINE DIHYDROCHLORIDE, 306-37-6, Doses [Carcinogen]: 100 MG/KG ONCE 18 HR AFTER 2/3 PARTIAL HEPATECTOMY, Doses [Promoter]: 0, 1% IN DIET FOR 40 WK BEGINNING 1 WK POST CARCINOGEN DOSE (STUDY DURATION: 54 WK), Route [Carcinogen]: INTRAPERITONEAL, Route [Promoter]: ORAL, Species: RAT, Strain/Sex: F344/MALE) was “liver: hepatocellular carcinoma”, the outcome (Carcinogen: 1,2-DIMETHYLHYDRAZINE DIHYDROCHLORIDE, Doses [Carcinogen]: 100 MG/KG ONCE, 18 HR AFTER PARTIAL HEPATECTOMY, Doses [Promoter]: 1% IN DIET FOR 10 OR 13 MO BEGINNING 1 WK AFTER INITIATION, Route [Carcinogen]: INTRAPERITONEAL, Route [Promoter]: ORAL, Species: RAT, Strain/Sex: F344/MALE) was “liver: hepatocellular carcinoma” and the outcome (Carcinogen: 1,2-DIMETHYLHYDRAZINE, 540-73-8, Doses [Carcinogen]: 100 MG/KG ONCE 18 HR AFTER TWO-THIRDS PARTIAL HEPATECTOMY, Doses [Promoter]: 0, 1% IN DIET BEGINNING 1 WK POST CARCINOGEN DOSE (STUDY DURATION: 54 WK), Route [Carcinogen]: INTRAPERITONEAL, Route [Promoter]: ORAL, Species: RAT, Strain/Sex: F344/MALE) was “liver: hepatocellular carcinoma”. The outcome (Carcinogen: DIETHYLNITROSAMINE, 55-18-5, Doses [Carcinogen]: 200 MG/KG BW ONCE, Doses [Promoter]: 0, 1% IN DIET FOR 4 WK BEGINNING 1 WK POST CARCINOGEN DOSE, PARTIAL HEPATECTOMY PERFORMED AT END OF SECOND WK (STUDY DUR, Route [Carcinogen]: INTRAPERITONEAL, Route [Promoter]: ORAL, Species: RAT, Strain/Sex: F344/MALE) was “liver: carcinoma”, the outcome (Carcinogen: DIETHYLNITROSAMINE, 55-18-5, Doses [Carcinogen]: 200 MG/KG ONCE, Doses [Promoter]: 0, 1% IN DIET BEGINNING 1 WK POST CARCINOGEN DOSE (STUDY DURATION: 60 WK), Route [Carcinogen]: INTRAPERITONEAL, Route [Promoter]: ORAL, Species: RAT, Strain/Sex: F344/MALE) was “liver: hepatocellular carcinoma” and the outcome (Carcinogen: DIETHYLNITROSAMINE, 55-18-5, Doses [Carcinogen]: 200 MG/KG ONCE, Doses [Promoter]: 0, 1% IN DIET BEGINNING 5 WK POST CARCINOGEN DOSE (STUDY DURATION: 60 WK), Route [Carcinogen]: INTRAPERITONEAL, Route [Promoter]: ORAL, Species: RAT, Strain/Sex: F344/MALE) was “liver: hepatocellular carcinoma”. For the same compound, the outcome (Carcinogen: N-NITROSO(2-HYDROXYPROPYL)(2-OXOPROPYL)AMINE, 61499-28-3, Doses [Carcinogen]: 170 MG/KG (TOTAL DOSE) ADMINISTERED CONTINUOUSLY OVER 9 D VIA OSMOTIC PUMP, Doses [Promoter]: 0, 1% IN DIET BEGINNING 2 WK POST CARCINOGEN TREATMENT AND CONTINUING FOR DURATION OF STUDY (STUDY DURATION: 29 WK), Route [Carcinogen]: SUBCUTANEOUS IMPLANT, Route [Promoter]: ORAL, Species: HAMSTER, Strain/Sex: SYRIAN/FEMALE) was “pancreas: papillary adenocarcinoma, carcinoma in situ”, the outcome (Carcinogen: N-NITROSO(2-HYDROXYPROPYL)(2-OXOPROPYL)AMINE, 61499-28-3, Doses [Carcinogen]: 170 MG/KG (TOTAL DOSE) INFUSED CONTINUOUSLY FOR 9 D, Doses [Promoter]: 0, 1% IN DIET FOR DURATION OF STUDY BEGINNING 2 WK POST CARCINOGEN TREATMENT (STUDY DURATION: 28 WK), Route [Carcinogen]: SUBCUTANEOUS, Route [Promoter]: ORAL, Species: HAMSTER, Strain/Sex: SYRIAN/FEMALE) was “pancreas: carcinoma in situ, adenocarcinoma” and the outcome (Carcinogen: N-NITROSO(2-HYDROXYPROPYL)(2-OXOPROPYL)AMINE, 61499-28-3, Doses [Carcinogen]: 400 MG/KG (TOTAL DOSE) ADMINISTERED CONTINUOUSLY BY OSMOTIC PUMP FOR 14 D, Doses [Promoter]: 0, 1% IN DIET FOR 15 WK BEGINNING 2 WK PRIOR TO CARCINOGEN TREATMENT (STUDY DURATION: 29 WK), Route [Carcinogen]: SUBCUTANEOUS, Route [Promoter]: ORAL, Species: RAT, Strain/Sex: SPRAGUE-DAWLEY/MALE) was “kidney: tumor; lung: adenoma”. The outcome (Carcinogen: N-NITROSO(2-HYDROXYPROPYL)(2-OXOPROPYL)AMINE, 61499-28-3, Doses [Carcinogen]: 400 MG/KG VIA OSMOTIC PUMP CONTINUOUSLY FOR 14 D, Doses [Promoter]: 0, 1% IN DIET 2 WK PRIOR TO AND 13 WK POST CARCINOGEN TREATMENT (STUDY DURATION: 27 WK), Route [Carcinogen]: SUBCUTANEOUS, Route [Promoter]: ORAL, Species: RAT, Strain/Sex: CD-1/MALE) was “kidney: tumor; lung: adenoma”.

For `CCCC[C@@H](C)[C@@H](OC(=O)C[C@@H](CC(=O)O)C(=O)O)[C@H](C[C@@H](C)C[C@H](O)CCCC[C@@H](O)C[C@H](O)[C@H](C)N)OC(=O)C[C@@H](CC(=O)O)C(=O)O`, the outcome (Doses [Carcinogen]: 100 PPB IN WATER FOR 30 MIN, Doses [Promoter]: 0, 23, 104 PPM IN DIET FOR 42 WK BEGINNING 1 MO POST CARCINOGEN TREATMENT (STUDY DURATION: 64 WK), Doses [Promoter]: 0, 23, 104 PPM IN DIET FOR 42 WK BEGINNING 1 MO POST CARCINOGEN TREATMENT (STUDY DURATION: 64 WK), Route [Carcinogen]: IMMERSION, Route [Promoter]: ORAL, Species: FISH, Strain/Sex: SHASTA RAINBOW TROUT/MALE,FEMALE) is listed as “liver: tumor”.

For `O=C1C=CC(=O)c2c(O)cccc21`, the outcome (Carcinogen: 7,12-DIMETHYLBENZ[A]ANTHRACENE, 57-97-6, Doses [Carcinogen]: 25 NMOL IN 0.2 ML ACETONE ONCE, Doses [Promoter]: 440, 880, 1760 NMOL/MOUSE 1/WK FOR 40 WK BEGINNING 2 WK POST CARCINOGEN DOSE (STUDY DURATION: 42 WK), Doses [Promoter]: 440, 880, 1760 NMOL/MOUSE 1/WK FOR 40 WK BEGINNING 2 WK POST CARCINOGEN DOSE (STUDY DURATION: 42 WK), Route [Carcinogen]: DERMAL, Route [Promoter]: DERMAL, Species: MOUSE, Strain/Sex: SENCAR/FEMALE) is listed as “skin: papilloma”, the outcome (Carcinogen: 7,12-DIMETHYLBENZ[A]ANTHRACENE, 57-97-6, Doses [Carcinogen]: 25 NMOL IN 0.2 ML ACETONE ONCE, Doses [Promoter]: 1760 NMOL/MOUSE 2/WK FOR 40 WK BEGINNING 2 WK POST CARCINOGEN DOSE (STUDY DURATION: 42 WK), Route [Carcinogen]: DERMAL, Route [Promoter]: DERMAL, Species: MOUSE, Strain/Sex: SENCAR/FEMALE) is listed as “skin: papilloma” and the outcome (Carcinogen: 7,12-DIMETHYLBENZ[A]ANTHRACENE, 57-97-6, Doses [Carcinogen]: 25 NMOL IN 0.2 ML ACETONE ONCE, Doses [Promoter]: 1760 NMOL/MOUSE 3/WK FOR 40 WK BEGINNING 2 WK POST CARCINOGEN DOSE (STUDY DURATION: 42 WK), Route [Carcinogen]: DERMAL, Route [Promoter]: DERMAL, Species: MOUSE, Strain/Sex: SENCAR/FEMALE) is listed as “skin: papilloma”. The outcome (Carcinogen: 7,12-DIMETHYLBENZ[A]ANTHRACENE, 57-97-6, Doses [Carcinogen]: 25 NMOL IN 0.2 ML ACETONE ONCE, Doses [Promoter]: 1760 NMOL/MOUSE 3/WK FOR 60 WK BEGINNING 2 WK POST CARCINOGEN DOSE (STUDY DURATION: 60 WK), Route [Carcinogen]: DERMAL, Route [Promoter]: DERMAL, Species: MOUSE, Strain/Sex: SENCAR/FEMALE) was “skin: carcinoma”.

For `COc1cc([C@@H]2Oc3cc([C@H]4Oc5cc(O)cc(O)c5C(=O)[C@@H]4O)ccc3O[C@H]2CO)ccc1O`, the outcome (Carcinogen: 1-Methyl-1-nitrosourea, 684-93-5, Doses [Carcinogen]: 50 mg/lg once 30 days after initial silymarin dose, Doses [Promoter]: 0, 0.03, 0.1, 0.3, 1% (w/w) in diet for 140 d beginning at 21 d of age, Doses [Promoter]: 0, 0.03, 0.1, 0.3, 1% (w/w) in diet for 140 d beginning at 21 d of age, Route [Carcinogen]: Intraperitoneal, Route [Promoter]: Oral, Species: Rat, Strain/Sex: Sprague-Dawley/Female (30/27), (30/25), (30/27), (30/23), Strain/Sex: Sprague-Dawley/Female (30/27), (30/25), (30/27), (30/23)) is listed as “mammary gland: tumors. silymarin demonstrated a slight enhancement of mammary ca”.

In the case of `C#C[C@]1(O)CC[C@H]2[C@@H]3CCc4cc(OC)ccc4[C@H]3CC[C@@]21C`, the outcome (Carcinogen: DIETHYLNITROSAMINE, 55-18-5, Doses [Carcinogen]: 20 MG/KG IN 0.85% SALINE ONCE PRECEDED 24 HR BY 2/3 PARTIAL HEPATECTOMY, Doses [Promoter]: 0, 0.1, 0.5 PPM IN DIET FOR 12 MO BEGINNING 24 HR POST CARCINOGEN (STUDY DURATION: 12 MO), Doses [Promoter]: 0, 0.1, 0.5 PPM IN DIET FOR 12 MO BEGINNING 24 HR POST CARCINOGEN (STUDY DURATION: 12 MO), Route [Carcinogen]: INTRAPERITONEAL, Route [Promoter]: ORAL, Species: RAT, Strain/Sex: CD-1/FEMALE) is listed as “liver: hepatocellular carcinoma”.
